Laboratory results from patent US7858635B2 (priority 2005, dated 2010).
Read-outs that look alike come from different tables or passages of the source.

What was measured:
[1] = biological target: T1, M4 muscarinic receptor (Homo sapiens, UniProt P08173); assay: Functional mobilization of intracellular calcium (FLIPR, Fluo-3), M4-CHO cells; assay type: cell-based; settings: for Emax: 100% efficacy is the maximum response obtained with the Carbachol control, read-out: M4 Efficacy
T1 construct: expressed in transfected cells; host or cells: CHO cells (M4-CHO, under puromycin, zeocin and blasticidin selection)
T1 sequence (P08173 1-479): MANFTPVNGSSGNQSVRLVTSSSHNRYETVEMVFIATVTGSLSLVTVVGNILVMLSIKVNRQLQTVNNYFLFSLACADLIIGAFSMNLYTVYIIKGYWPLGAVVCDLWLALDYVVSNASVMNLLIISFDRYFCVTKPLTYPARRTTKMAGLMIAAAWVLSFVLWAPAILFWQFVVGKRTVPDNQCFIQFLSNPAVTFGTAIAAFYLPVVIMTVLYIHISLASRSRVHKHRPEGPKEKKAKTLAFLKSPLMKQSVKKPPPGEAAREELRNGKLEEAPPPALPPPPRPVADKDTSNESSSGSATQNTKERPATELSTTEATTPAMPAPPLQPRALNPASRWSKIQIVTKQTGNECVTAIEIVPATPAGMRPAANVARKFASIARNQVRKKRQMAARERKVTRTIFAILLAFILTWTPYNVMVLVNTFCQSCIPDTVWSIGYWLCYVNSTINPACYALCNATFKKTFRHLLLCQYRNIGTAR
Procedure, shortened: (§1)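 Intracellular calcium was tracked by fluorescence (488/540 nm) over 60 sec after compound addition to dye-loaded CHO cells expressing the receptor. Inhibitory activity used a 15 min pre-incubation before carbachol at the subtype EC80.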

[2] = biological target: T2, M1 muscarinic receptor (Homo sapiens, UniProt P11229); assay: Functional mobilization of intracellular calcium (FLIPR, Fluo-3), M1-CHO cells; assay type: cell-based; settings: for Emax: 100% efficacy is the maximum response obtained with the Carbachol control, read-out: M1 Efficacy
T2 construct: expressed in transfected cells; host or cells: CHO cells (M1-CHO, under zeocin and G418 selection)
T2 sequence (P11229 1-460): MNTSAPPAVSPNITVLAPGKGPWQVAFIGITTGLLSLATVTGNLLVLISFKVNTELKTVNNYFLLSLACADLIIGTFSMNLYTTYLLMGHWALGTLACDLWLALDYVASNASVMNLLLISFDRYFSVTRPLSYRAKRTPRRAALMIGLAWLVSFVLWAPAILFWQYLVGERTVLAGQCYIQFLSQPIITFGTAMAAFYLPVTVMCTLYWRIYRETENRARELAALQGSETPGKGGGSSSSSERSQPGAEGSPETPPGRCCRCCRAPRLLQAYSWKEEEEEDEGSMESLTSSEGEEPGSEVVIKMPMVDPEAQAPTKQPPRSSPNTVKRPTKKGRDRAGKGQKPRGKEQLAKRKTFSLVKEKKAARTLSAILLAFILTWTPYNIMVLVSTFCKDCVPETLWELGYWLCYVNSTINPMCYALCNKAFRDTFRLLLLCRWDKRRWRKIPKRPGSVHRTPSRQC
Procedure, shortened: as §1

[3] = compound nos. 1-454, M4-CHO cells, calcium mobilization
[4] = compound nos. 1-454, M1-CHO cells, calcium mobilization

CCOC(=O)N1CCC(N2CCC3(CC2)CN(C(C)=O)c2ccc(-c4ccsc4)cc23)CC1 [compound 165]
Emax ([1]; compound nos. 1-454): > 70%
M4 Activity [1, 3]: + (activity was measured to be greater than or equal to 4.0 μM)
Emax ([2]; compound nos. 1-454): 65 to 85%
M1 Activity [2, 4]: + (activity was measured to be greater than or equal to 3.0 μM)

CCCC(=O)N1CC2(CCN(C3CCN(C(=O)OCC)CC3)CC2)c2cc(F)ccc21 [compound 324]
Emax ([1]; compound nos. 1-454): 55 to 70%
M4 Activity [1, 3]: + (activity was measured to be greater than or equal to 4.0 μM)
Emax ([2]; compound nos. 1-454): 65 to 85%
M1 Activity [2, 4]: ++ (activity was measured to be between 0.7 μM and 3.0 μM)

CCCOC(=O)N1CCC(CN2CCC3(CC2)CN(C(C)=O)c2ccc(F)cc23)CC1 [compound 98]
Emax ([1]; compound nos. 1-454): < 55%
M4 Activity [1, 3]: ++ (activity was measured to be between 0.1 μM and 4.0 μM)
Emax ([2]; compound nos. 1-454): 65 to 85%
M1 Activity [2, 4]: +++ (activity was measured to be less than or equal to 0.7 μM)

Cc1cncc(N2CCC(N3CCC4(CC3)CN(C(=O)N(C)C)c3ccccc34)CC2)n1 [compound 478]
Emax ([1]; compound nos. 455-509): 25 to 100%
M4 Activity ([1]; compounds 455-509): ++ (activity was measured to be between 2.0 μM and 5.0 μM)
Emax ([2]; compound nos. 455-509): > 100%
M1 Activity ([2]; compounds 455-509): +++ (activity was measured to be less than or equal to 2.0 μM)

Fc1ccc2c(c1)C1(CCN([C@@H]3C[C@@H]4CC[C@H]3C4)CC1)CO2 [compound 175]
Emax ([1]; compound nos. 1-454): 55 to 70%
M4 Activity [1, 3]: ++ (activity was measured to be between 0.1 μM and 4.0 μM)
Emax ([2]; compound nos. 1-454): 65 to 85%
M1 Activity [2, 4]: +++ (activity was measured to be less than or equal to 0.7 μM)

CC(=O)N1CC2(CCN(C3CCCCC3C)CC2)c2cc(F)ccc21 (stereo not shown) [compound 52]
Emax ([1]; compound nos. 1-454): 55 to 70%
M4 Activity [1, 3]: +++ (activity was measured to be less than or equal to 0.1 μM)
Emax ([2]; compound nos. 1-454): > 85%
M1 Activity [2, 4]: +++ (activity was measured to be less than or equal to 0.7 μM)

CCOC(=O)N1C2CCC1CC(N1CCC3(CC1)CNc1ccc(C)cc13)C2 (stereo not shown) [compound 109]
Emax ([1]; compound nos. 1-454): < 55%
M4 Activity [1, 3]: ++ (activity was measured to be between 0.1 μM and 4.0 μM)
Emax ([2]; compound nos. 1-454): 65 to 85%
M1 Activity [2, 4]: +++ (activity was measured to be less than or equal to 0.7 μM)

CN(C)C(=O)N1CC2(CCN(C3CCN(C(=O)O[C@@H]4CCOC4)CC3)CC2)c2cc(F)ccc21 [compound 209]
Emax ([1]; compound nos. 1-454): < 55%
M4 Activity [1, 3]: + (activity was measured to be greater than or equal to 4.0 μM)
Emax ([2]; compound nos. 1-454): > 85%
M1 Activity [2, 4]: ++ (activity was measured to be between 0.7 μM and 3.0 μM)

CCNC(=O)N1CC2(CCN(C3CC4CCC3C4)CC2)c2cc(C)ccc21 (stereo not shown) [compound 400]
M4 Activity ([1]; compound nos. 1-454): + (activity was measured to be greater than or equal to 4.0 μM)
Emax ([1]; compound nos. 1-454): < 55%
M1 Activity ([2]; compound nos. 1-454): + (activity was measured to be greater than or equal to 3.0 μM)
Emax ([2]; compound nos. 1-454): < 65%

CCOC(=O)N1C2CCC1CC(N1CCC3(CC1)CNc1ccc(Cl)cc13)C2 (stereo not shown) [compound 351]
Emax ([1]; compound nos. 1-454): > 70%
M4 Activity [1, 3]: ++ (activity was measured to be between 0.1 μM and 4.0 μM)
Emax ([2]; compound nos. 1-454): 65 to 85%
M1 Activity [2, 4]: +++ (activity was measured to be less than or equal to 0.7 μM)

CCc1cncc(N2CCC(N3CCC4(CC3)CN(C(C)=O)c3ccccc34)CC2)n1 [compound 485]
Emax ([1]; compound nos. 455-509): 25 to 100%
M4 Activity ([1]; compounds 455-509): ++ (activity was measured to be between 2.0 μM and 5.0 μM)
Emax ([2]; compound nos. 455-509): > 100%
M1 Activity ([2]; compounds 455-509): +++ (activity was measured to be less than or equal to 2.0 μM)

O=C(O[C@@H]1CCOC1)N1CC2(CCN(C3CC4CCC(C3)N4C(=O)O[C@H]3CCOC3)CC2)c2cc(F)ccc21 (stereo partly shown) [compound 93]
Emax ([1]; compound nos. 1-454): < 55%
M4 Activity [1, 3]: ++ (activity was measured to be between 0.1 μM and 4.0 μM)
Emax ([2]; compound nos. 1-454): < 65%
M1 Activity [2, 4]: ++ (activity was measured to be between 0.7 μM and 3.0 μM)

CCOC(=O)N1CCC(N2CCC3(CC2)CN(C(=O)N(C)C)c2ccc(F)cc23)CC1 [compound 39]
Emax ([1]; compound nos. 1-454): > 70%
M4 Activity [1, 3]: ++ (activity was measured to be between 0.1 μM and 4.0 μM)
Emax ([2]; compound nos. 1-454): 65 to 85%
M1 Activity [2, 4]: +++ (activity was measured to be less than or equal to 0.7 μM)

CCOC(=O)N1C2CCC1CC(N1CCC3(CC1)CNc1ccccc13)C2 (stereo not shown) [compound 153]
Emax ([1]; compound nos. 1-454): > 70%
M4 Activity [1, 3]: +++ (activity was measured to be less than or equal to 0.1 μM)
Emax ([2]; compound nos. 1-454): > 85%
M1 Activity [2, 4]: +++ (activity was measured to be less than or equal to 0.7 μM)

CN(C)C(=O)N1CC2(CCN(C3CCN(c4cnc5ccccc5n4)CC3)CC2)c2cc(F)ccc21 [compound 460]
Emax ([1]; compound nos. 455-509): 25 to 100%
M4 Activity ([1]; compounds 455-509): ++ (activity was measured to be between 2.0 μM and 5.0 μM)
Emax ([2]; compound nos. 455-509): > 100%
M1 Activity ([2]; compounds 455-509): +++ (activity was measured to be less than or equal to 2.0 μM)

CCCOC(=O)N1CC2(CCN(C3CCN(C(=O)OCC)CC3)CC2)c2cc(F)ccc21 [compound 114]
Emax ([1]; compound nos. 1-454): < 55%
M4 Activity [1, 3]: + (activity was measured to be greater than or equal to 4.0 μM)
Emax ([2]; compound nos. 1-454): 65 to 85%
M1 Activity [2, 4]: ++ (activity was measured to be between 0.7 μM and 3.0 μM)

Fc1ccc2c(c1)C1(CCN(C3CCCCC3)CC1)CO2 [compound 152]
Emax ([1]; compound nos. 1-454): > 70%
M4 Activity [1, 3]: + (activity was measured to be greater than or equal to 4.0 μM)
Emax ([2]; compound nos. 1-454): 65 to 85%
M1 Activity [2, 4]: ++ (activity was measured to be between 0.7 μM and 3.0 μM)

CCOC(=O)N1CCC(CN2CCC3(CCc4ccccc43)CC2)CC1 [compound 414]
M4 Activity ([1]; compound nos. 1-454): + (activity was measured to be greater than or equal to 4.0 μM)
Emax ([1]; compound nos. 1-454): < 55%
M1 Activity ([2]; compound nos. 1-454): + (activity was measured to be greater than or equal to 3.0 μM)
Emax ([2]; compound nos. 1-454): < 65%

CN(C)C(=O)N1CC2(CCN(C3CCN(c4cnc(Br)cn4)CC3)CC2)c2ccccc21 [compound 509]
Emax ([1]; compound nos. 455-509): 25 to 100%
M4 Activity ([1]; compounds 455-509): ++ (activity was measured to be between 2.0 μM and 5.0 μM)
Emax ([2]; compound nos. 455-509): > 100%
M1 Activity ([2]; compounds 455-509): ++ (activity was measured to be between 2.0 μM and 5.0 μM)

CCCOC(=O)N1CCC(CN2CCC3(CC2)CN(C(C)=O)c2ccc(C)cc23)CC1 [compound 306]
Emax ([1]; compound nos. 1-454): < 55%
M4 Activity [1, 3]: + (activity was measured to be greater than or equal to 4.0 μM)
Emax ([2]; compound nos. 1-454): < 65%
M1 Activity [2, 4]: + (activity was measured to be greater than or equal to 3.0 μM)

Cc1cncc(N2CCC(N3CCC4(CCN(C(=O)N(C)C)c5ccccc54)CC3)CC2)n1 [compound 494]
Emax ([1]; compound nos. 455-509): 25 to 100%
M4 Activity ([1]; compounds 455-509): ++ (activity was measured to be between 2.0 μM and 5.0 μM)
Emax ([2]; compound nos. 455-509): > 100%
M1 Activity ([2]; compounds 455-509): +++ (activity was measured to be less than or equal to 2.0 μM)

O=C(O[C@@H]1CCOC1)N1CC2(CCN(C3CC4CCC(C3)N4C(=O)O[C@H]3CCOC3)CC2)c2cc(F)ccc21 (stereo partly shown) [compound 198]
Emax ([1]; compound nos. 1-454): < 55%
M4 Activity [1, 3]: + (activity was measured to be greater than or equal to 4.0 μM)
Emax ([2]; compound nos. 1-454): 65 to 85%
M1 Activity [2, 4]: ++ (activity was measured to be between 0.7 μM and 3.0 μM)

Clc1ccc2c(c1)C1(CCN(C3C[C@@H]4CCC3C4)CC1)CO2 (stereo in doubt) [compound 1, 1′-((1S,2R,4R)-bicyclo[2.2.1]heptan-2-yl)-5-chloro-2H-spiro[benzofuran-3,4′-piperidine]]
Emax ([1]; compound nos. 1-454): > 70%
M4 Activity [1, 3]: ++ (activity was measured to be between 0.1 μM and 4.0 μM)
Emax ([2]; compound nos. 1-454): 65 to 85%
M1 Activity [2, 4]: ++ (activity was measured to be between 0.7 μM and 3.0 μM)

CCOC(=O)N1CCC(N2CCC3(CC2)CN(C(=O)c2ccccc2F)c2ccc(F)cc23)CC1 [compound 267]
Emax ([1]; compound nos. 1-454): < 55%
M4 Activity [1, 3]: + (activity was measured to be greater than or equal to 4.0 μM)
Emax ([2]; compound nos. 1-454): < 65%
M1 Activity [2, 4]: + (activity was measured to be greater than or equal to 3.0 μM)

Fc1ccc2c(c1)C1(CCN(C[C@@H]3C[C@H]4CC[C@H]3O4)CC1)CN2 [compound 429]
M4 Activity ([1]; compound nos. 1-454): + (activity was measured to be greater than or equal to 4.0 μM)
Emax ([1]; compound nos. 1-454): < 55%
M1 Activity ([2]; compound nos. 1-454): ++ (activity was measured to be between 0.7 μM and 3.0 μM)
Emax ([2]; compound nos. 1-454): < 65%
